Laboratory results: patent US9862723B2, “Stable polymorph of the salt of (2R)-4-oxo-4-[3-(trifluoromethyl)-5,6-dihydro[1,2,4]triazolo[4,3-α]pyrazin-7(8H)-yl]-1-(2,4,5-trifluorophenyl)butan-2-anime with L-tartaric acid” (ZENTIVA k.s, priority 2013, dated 2018)

Assay: Relative stability of the crystalline forms of sitagliptin L-tartrate (polymorph transformation on contamination/seeding with Form Z1)
Assay type: physicochemical
Settings: for stability of the crystalline form (polymorph) relative to the other form: comparison of WO 2005/072530 crystalline form with Form Z1 of sitagliptin L-tartrate, further experiments
Source text: When studying the properties of salts of (2R)-4-oxo-4-[3-(trifluoromethyl)-5,6-dihydro[1,2,4]triazolo[4,3-α]pyrazin-7(8H)-yl]-1-(2,4,5-trifluorophenyl)butan-2-amine (sitagliptin), a quite new polymorph (Form Z1) of the salt of (2R)-4-oxo-4-[3-(trifluoromethyl)-5,6-dihydro[1,2,4]triazolo[4,3-α]pyrazin-7(8H)-yl]-1-(2,4,5-trifluorophenyl)butan-2-amine (sitagliptin) with L-tartaric acid has been successfully obtained, characterized by the following reflections in the X-ray powder pattern: 5.9; 9.8; 14.2; 19.5; 23.8 and 26.2±0.2° 2-theta.
Preparation of the Salt of (2R)-4-oxo-4-[3-(trifluoromethyl)-5,6-dihydro[1,2,4]triazolo[4,3-α]pyrazin-7(8H)-yl]-1-(2,4,5-trifluorophenyl)butan-2-amine with L-tartaric acid (Mixture of Forms) The salt of (2R)-4-oxo-4-[3-(trifluoromethyl)-5,6-dihydro[1,2,4]triazolo[4,3-α]pyrazin-7(8H)-yl]-1-(2,4,5-trifluorophenyl)butan-2-amine (sitagliptin) with L-tartaric acid, prepared in accordance with Example 1 (according to WO 2005/072530) (2 g) was suspended in propan-2-ol (50 ml) and the suspension was heated up to 50° C. under constant agitation. The polymorph Z1 (0.1 g) prepared in accordance with Example 2 was added to the white suspension. The mixture was agitated at the same temperature for 20 minutes and after cooling to 20° C. the product was filtered off and washed with a small amount of propan-2-ol. The obtained product was dried in a vacuum drier at 40° C. 1.9 g of a mixture of forms was obtained, Form Z1 being enriched considerably.

SMILES | stability of the crystalline form (polymorph) relative to the other form | transformation of the original polymorph to Form Z1 (inconsiderable contamination by Form Z1, even under the conditions in which the original crystalline form is prepared)
N[C@@H](CC(=O)N1CCn2c(nnc2C(F)(F)F)C1)Cc1cc(F)c(F)cc1F.O=C(O)C(O)C(O)C(=O)O [Form Z1, salt of (2R)-4-oxo-4-[3-(trifluoromethyl)-5,6-dihydro[1,2,4]triazolo[4,3-α]pyrazin-7(8H)-yl]-1-(2,4,5-trifluorophenyl)butan-2-amine (sitagliptin) with L-tartaric acid] | more stable | 
N[C@@H](CC(=O)N1CCn2c(nnc2C(F)(F)F)C1)Cc1cc(F)c(F)cc1F.O=C(O)C(O)C(O)C(=O)O [previously described crystalline form, Salt of (2R)-4-oxo-4-[3-(trifluoromethyl)-5,6-dihydro[1,2,4]triazolo[4,3-α]pyrazin-7(8H)-yl]-1-(2,4,5-trifluorophenyl)butan-2-amine with L-tartaric acid] | significantly less stable | very quick transformation
